Test results reported in a melting point compilation (Tetko et al.; mined from patent text by program, amines drawn as free bases though some values may be those of a salt).

| melting point [°C] | Compound |
| --- | --- |
| 139 | Nc1cc(=O)n(Cc2ccc(Br)cc2)[nH]1 |
| 137 to 139 | COCc1cn(-c2cccc(C(F)(F)F)c2)nc(-c2ccnn2-c2ccccc2)c1=O |
| 200 | COc1ccc(-c2cncc(OC3SCC(O)C(O)C3O)c2)cc1F (stereo not drawn) |
| 200 to 201 | CSc1nnc(-c2ccc3ncn(-c4ccc(OC(F)(F)F)cc4)c3c2)o1 |
| 107 to 108 | CNC(=O)N(O)C(C)c1ccc(C)c(Br)c1 (stereo not drawn) |
| 224 to 226 | Oc1ccc(-c2nsc3ccccc23)c(Cl)c1Cl |
| 88 to 89 | C#CCOc1cc([N+](=O)[O-])c(F)cc1Cl |
| 186 to 218 | ON=C(c1ccc(Cl)cc1)C1(n2cncn2)CC1 |
| 50 to 51 | CCCCCCCCCCCCCCOc1ccc(C(=O)OC)cc1OCCCCCCCCCCCCCC |
| 263 to 265 | O=C(O)c1cnc2ccc(C3CCCCC3)cc2c1O |
| 142 to 144 | CNC(=O)[C@@H](NC(=O)[C@@H](CC(=O)O)n1ccc(-c2ccc(-c3ccc(C#N)cc3)cc2)c1)C(C)(C)C |
| > 250 | O=c1[nH]c2scnc2c2c(O)cccc12 |
| 201 to 202 | CN(c1cccc2cc(-c3ncc(CO)s3)[nH]c12)S(=O)(=O)c1cccs1 |
| 150 to 152 | CC(C)(C)c1nnc2ccc(Cl)nn12 |
| 201 to 203 | CC(=O)NC[C@H]1CN(c2ccc3c(c2)N(C(=O)OCc2ccccc2)[C@H](C)C3)C(=O)O1 |
| 224 to 226 | CCOC(=O)N1CCN(c2ccc(N3CC(CNC(C)=O)OC3=O)cc2F)CC1 (stereo not drawn) |
| 281 to 283 | O=C(NCc1ccc(Cl)cc1)c1cnc2c(F)cc(-c3cc(Br)cs3)cc2c1O |
| 160 to 162 | Nc1ncc(Cl)c(Cl)c1Cl |
| 202 to 205 | CC(=O)OCC(CCn1cnc2c(=O)[nH]c(N)nc21)COC(C)=O |
| 95.5 to 96.5 | CCCCCCCCCCCCC#CCC(COC(C)=O)(COC(C)=O)NC(C)=O |
| 65.5 | Cc1ccc([N+](=O)[O-])cc1C=Cc1ccccc1 |
| 128 to 130 | CSc1nnc(COc2cc(C(C)(C)C)c(O)c(C(C)(C)C)c2)s1 |
| 257 to 258 | Cc1nnc(NCCCN2CCCC2=O)c2c1cc1ccccn12 |
| 138 | COC(=O)C(Cc1ccccc1)C(=O)N1CCC(C(=O)O)CC1 (stereo not drawn) |
| > 350 | O=c1c2ccc(-c3nnn[nH]3)cc2[nH]c2ccc(-c3nnn[nH]3)cc12 |

| melting point [°C] | Compound |
| --- | --- |
| 88 | COc1ccc(C2CCCN(C(=O)C(F)(F)F)C2)cc1N (stereo not drawn) |
| 201 to 202 | Cc1ncc(CO)c(C2NC(C(=O)O)C(C)(C)S2)c1O (stereo not drawn) |
| 168 | COC1=C(OC)CC(C)(CNCCCCc2ccc(NC(=O)c3cccc4c(=O)c5cc(F)ccc5sc34)cc2)C=C1 (stereo not drawn) |
| 233 to 235 | CCOC(=O)c1nc2ccc(N)cc2c(=O)[nH]1 |
| 168 to 173 | COc1ccc(C2=NN(c3ccccc3)C(c3ccc([N+](=O)[O-])cc3)C2)cc1 (stereo not drawn) |
| 200 to 202 | Nc1nc(Nc2ccc3c(c2)OCO3)sc1C(=O)c1ccccc1[N+](=O)[O-] |
| 74 to 76 | N#CCN1C(=O)CC=C(C2(c3ccccc3)C=C3C=CC=CN3N2)N1C1=CCCCC1 (stereo not drawn) |
| 72.9 to 78.9 | CCCCOC(=O)N1CCSCC1 |
| 109 to 111 | O=C(O)c1cc(F)c(F)c(Cl)c1F |
| 133 to 134 | Cc1cc2cc(C(=O)OCc3ccccc3)n(CC(=O)OC(C)(C)C)c2cc1C |
| 81 to 83 | Cn1ncc(C(=O)c2ccc(Cl)cc2Cl)c1Cl |
| 230 to 233 | O=C1Nc2cc(F)ccc2C1c1ncnc2c1cnn2C1CCCC1 (stereo not drawn) |
| 161 to 162 | COc1cc(Nc2nccc(-c3ccc(OCCCN)cc3)n2)cc(OC)c1OC |
| 265 to 267 | Cc1cc(-c2n[nH]c(=O)c(O)c2O)ccc1O |
| 235 | O=S1(=O)c2cccc3cccc(c23)N1CCN1CCN(c2ccc(O)cc2)CC1 |
| 140 to 142 | CCOc1cc2c(cc1OCC)-c1c(OCC)c(OCC)cc3c1C(C2)N(C)CC3O (stereo not drawn) |
| 184 to 186 | CCc1ccccc1NC(=O)c1ccccc1CN1C(=O)C2(COc3cc4c(cc32)CCO4)c2ccccc21 (stereo not drawn) |
| 124 to 125 | COc1cc(C(=O)N(C(C)C)C2CCCCC2)ccc1Cn1c(CN(C)C)nc2cccnc21 |
| 223 to 225 | COc1nc(Cl)cnc1NS(=O)(=O)c1ccccc1-c1ccc(OC(C)C(=O)O)cc1 (stereo not drawn) |
| 206 to 207 | CC(=O)n1nc(-c2c(C)cc(C)c(N)c2C)n2nc(C(C)(C)C)cc12 |
| 159 to 160 | O=C(O)C1(C(=O)Nc2cc(Cl)cc(Cl)c2)CCC1 |
| 72 | O=C(Oc1ccccc1)N1Cc2ccccc2C(Oc2ccc(C(F)(F)F)cc2)C1 (stereo not drawn) |
| 167 to 168 | O=CC(=C(Cl)c1ccc2c(c1)OCO2)c1ccc2c(c1)OCO2 |
| 191 to 193 | O=P(O)(O)C(c1cccc(C(F)(F)F)c1)c1cccc(C(F)(F)F)c1 |
| 158 to 160 | O=C(OCN1C(=O)CN(CCN2CC(=O)N(COC(=O)c3cccs3)C(=O)C2)CC1=O)c1cccs1 |

| melting point [°C] | Compound |
| --- | --- |
| 201 to 203 | COc1ccc2c(=O)cc(-c3nc4ccccc4[nH]3)oc2c1 |
| 213 to 215 | CC(=O)c1ccc(NCc2c(O)ccc3c2CCCO3)cc1 |
| 178 to 180 | CCOC(=O)c1ccc(C(=O)O)c2c([N+](=O)[O-])cccc12 |
| 77 to 80 | Cc1cc(S(=O)(=O)Nc2onc(C)c2Br)c(C)s1 |
| 67 to 68 | CCCCCCCCCCCCCCCOc1ccc(C(C)=O)o1 |
| 48 to 50 | Cc1ccc(I)c(CC(=O)OC(C)C)c1 |
| 104 to 105 | COc1ccc(N2CCC(=O)C2)cc1 |
| 135 | COC(=O)CCCC#Cc1cc(Cl)ccc1NS(=O)(=O)c1ccc2nc(N)oc2c1 |
| 150 to 152 | CC[C@H](COC)n1cc(Br)nc(N2CCc3cc(Cl)cc(Cl)c32)c1=O |
| 62 to 67 | Nc1ccc(-c2cccs2)c(C(=O)Nc2ccc3c(c2)CCC3)c1 |
| 118 to 121 | Cc1ccc(CC2(O)CCNCC2)cc1 |
| 135 to 138 | Cc1cc(Nc2ccc(Cl)c(Cl)c2)nc(-n2nc(C)cc2C)n1 |
| 88 to 95 | CC(C)c1cccc(C(C)C)c1NC(=O)CN |
| 321 | CCC(=O)Nc1cccc2c1C(=O)c1cccc(NC(=O)CC)c1C2=O |
| 150 | c1ccn(Nc2ccncc2)c1 |
| 138 to 140 | Cc1ccc(F)cc1C(=O)N1Cc2cccnc2Nc2ccccc21 |
| 128 to 130 | CCSc1cc(C=NO)c(Cl)cn1 |
| 103 to 105 | CCOC(=O)N=P(c1ccccc1)(c1ccccc1)c1ccccc1CN(C)C |
| > 250 | CC1(C)C=Cc2c(O)cc(-c3cc4ccc(O)cc4o3)cc2O1 |
| 292 to 294 | O=C(O)CCC1=C2C(=CC(Cl)=CC2(F)Cl)NC1C(=O)O (stereo not drawn) |
| 172 to 174 | CCCCn1nc(C(F)F)nc1Cc1ccc(-c2ccccc2-c2nnn[nH]2)nc1 |
| 173 to 174 | CCOP(=O)(Cc1ccc(NC(=O)/C=C/c2cnoc2-c2ccccc2)cc1)OCC |
| 96 to 97 | CCOC(=O)c1sc2cc(OCc3ccccc3)ccc2c1Sc1ccccc1 |
| 222 to 223 | CC(=O)Nc1ncc2ncn([C@@H]3C[C@H](OC(C)=O)[C@@H](O)[C@H]3O)c2n1 (racemic) |
| 230 to 232 | CCNCC1CCN(c2nc3c(cc2F)c(=O)c(C(=O)O)cn3CC)C1 (stereo not drawn) |

| melting point [°C] | Compound |
| --- | --- |
| 113 | CCOc1cc(C=[N+]([O-])C2CCC2)ccc1OC |
| 176 to 177 | O=C(CN1CCN(CCSc2nc3cccc(C(F)(F)F)c3o2)CC1)Nc1c(C(F)(F)F)cc(O)cc1C(F)(F)F |
| 153 to 154 | N#Cc1ccc(ON=C2CCCC(C(=O)O)C2)cc1 (stereo not drawn) |
| 195 to 196 | COc1cccc(-n2c(-c3sc(NC(=O)c4ccccc4)nc3-c3ccccc3)nc3ccccc3c2=O)c1 |
| 78 to 81 | CNC[C@@H](O)c1cnccn1 |
| 175 to 178 | CCCC(=O)Nc1cc(N(CCO)CCO)ccc1N=Nc1snc(C)c1C#N |
| > 300 | Cc1nc2[nH]c(=O)[nH]c2cc1-c1ccc(NC(=O)C(F)(F)F)cc1 |
| 78 to 80 | O=C1OC(COc2ccccc2)CN1CCOC1CCCCO1 (stereo not drawn) |
| 167 to 171 | Nc1ccc(S(=O)(=O)Nc2ccn(C3CCCC3)c(=O)n2)cc1 |
| 133 to 135 | COc1cccc(N(CCN2CCC(C(=O)c3ccc(F)cc3)CC2)C(=O)c2ccc([N+](=O)[O-])cc2)c1 |
| 97 to 98 | COC1C(OC(=O)c2ccccc2)C=C(C)C(=O)CC1(C)C (stereo not drawn) |
| 165 to 168 | CNC(=O)C(Cc1ccc(OC)cc1)NC(=O)C(C)(CC(C)C)c1ccccc1S (stereo not drawn) |
| 230 to 231 | Nc1ccc(C2=NNC(=O)C3CC23)cc1 (stereo not drawn) |
| 43.5 to 44.5 | FN(F)CC1(CN(F)F)COC1 |
| 210 to 214 | NC(=O)c1cccc(C2(O)C3CCC2CN(Cc2ccccc2)C3)c1 (stereo not drawn) |
| 33 | COCc1ccc(C(=O)OC)cn1 |
| 118 | CCOC(=O)c1[nH]c2ccc(C)cc2c1C |
| 86 to 87 | Clc1ccc(-c2nc(Br)cnc2OCC2CC2)cc1 |
| 232 to 235 | CC1CCc2c(N3CCN(S(=O)(=O)C(F)(F)F)CC3)c(Cl)cc3c(=O)c(C(=O)O)cn1c23 (stereo not drawn) |
| 180 to 182 | O=C1CCC(N2Cc3c(OCc4ccc(CN5CCC(Oc6ccccc6)CC5)cc4)cccc3C2=O)C(=O)N1 (stereo not drawn) |
| 80 to 81 | COc1cnc(C#N)c(C)c1 |
| 124 | CC(C)(C)OC(=O)N1CC[C@@H]2Nc3cccc(Br)c3[C@@H]2CC1 (relative stereo) |
| 272 to 273 | OCCn1cc(-c2cc3nccnc3[nH]2)c2ccccc21 |
| 131 to 133 | Fc1ccc2[nH]cc([C@H]3CC[C@H](NCc4ccccc4)CC3)c2c1 |

| Compound | melting point [°C] |
| --- | --- |
| CC1(O)C(O)C(CO)OC1n1ccc2c(N)ncnc21 (stereo not drawn) | 222 |
| CN(C)C=NC(=N[N+](=O)[O-])NC1CC1 | 120 to 122 |
| O=C(CCl)c1scc(Br)c1Br | 86 to 88 |
| CN(C)c1ccc(NC(=O)c2cc3cc(C(F)(F)F)ccc3n2Cc2cccc(F)c2)cn1 | 192 to 193 |
